Where two headings read alike, the source gives them in different places.
What was measured:
[1] = Solubility of TSC in water with gamma-cyclodextrin; assay type: physicochemical; settings: TSC and gamma-cyclodextrin
[2] = Solubility of TSC formulated with cyclodextrin and mannitol; assay type: physicochemical; settings: formulated with a cyclodextrin and mannitol
Excerpt: A trans carotenoid such as TSC can be formulated with a cyclodextrin as noted above and a non-metabolized sugar such as mannitol (e.g. d-mannitol to adjust the osmotic pressure to be the same as that of blood). […] This solution can be added to isotonic saline or to other isotonic solutions in order to dilute it and still maintain the proper osmolality.

[3] = Absorption into the blood stream after intramuscular injection of TSC with gamma cyclodextrin; assay type: in vivo; settings: injected intramuscularly, rats
Excerpt: The solutions need not be equal-molar.

[4] = after hemorrhagic shock in rats; cited from earlier work
[5] = cited from earlier work
[6] = cited from earlier work; remark: listed apart in the source

| SMILES | TSC concentration reached in aqueous solution [1] | TSC concentration of solutions that can be made [2] | absorption into the blood stream [3] | whole-body oxygen consumption [4] | oxygen levels, arterial and tissue ([5]; hypoxemic states) | oxygen levels, arterial and tissue ([5]; normoxic states) | diffusivity of oxygen through plasma ([6]; plasma) | diffusivity of oxygen in water [6] |
| --- | --- | --- | --- | --- | --- | --- | --- | --- |
| CC(/C=C/C=C(\C)C(=O)[O-])=C\C=C\C=C(C)\C=C\C=C(/C)C(=O)[O-].[Na+].[Na+] [TSC, trans sodium crocetinate] | ≤ 44 milligrams of TSC per ml of solution | over 20 mg TSC/ml of solution | Absorption is quick | increase whole-body oxygen consumption | increases oxygen levels | does not | increases the diffusivity of oxygen through plasma | increase the diffusivity of oxygen in water |
| CC(/C=C/C=C(\C)C(=O)O)=C\C=C\C=C(C)\C=C\C=C(/C)C(=O)O [crocetin, reference compound] | – | – | – | – | – | – | – | increase the diffusivity of oxygen in water |

— patent publication US20230181509A1, “THE USE OF DIFFUSION ENHANCING COMPOUNDS FOR TREATMENT OF VIRAL AND BACTERIAL INDUCED RESPIRATORY DISEASE” (DIFFUSION PHARMACEUTICALS LLC, priority 2020, published 2023)
